Measurements: publication PMC2799336 (Journal of the American Chemical Society, 2009)

What was measured:
[1] = target: T1, E. coli lipoic acid ligase (LplA) (Escherichia coli, UniProt P32099); settings: azide 7 ligation; cited from earlier work
[2] = target: T1, E. coli lipoic acid ligase (LplA); test: HPLC kinetics of LplA-catalyzed lipoylation; assay type: biochemical
LplA [3] = settings: cited from earlier work
LplA [4] = settings: 1:10, 1:100, 1:1000 mixtures of E2p:LAP1; 300 nM LplA, 30 minutes; PCR analysis
LplA [5] = test system: LplA
biotin ligase (BirA) = settings: 12 hour reaction with 5 μM BirA; HPLC; data not shown
HeLa mammalian cells = test: Surface expression of LAP-CFP-TM fusions in mammalian cells; settings: CFP fluorescence
LplA [6] = settings: LAP2 fused to the C- rather than N-terminus of HP1; 50 nM LplA, 1 hour, 30 °C; HPLC

T1 sequence (P32099 whole entry): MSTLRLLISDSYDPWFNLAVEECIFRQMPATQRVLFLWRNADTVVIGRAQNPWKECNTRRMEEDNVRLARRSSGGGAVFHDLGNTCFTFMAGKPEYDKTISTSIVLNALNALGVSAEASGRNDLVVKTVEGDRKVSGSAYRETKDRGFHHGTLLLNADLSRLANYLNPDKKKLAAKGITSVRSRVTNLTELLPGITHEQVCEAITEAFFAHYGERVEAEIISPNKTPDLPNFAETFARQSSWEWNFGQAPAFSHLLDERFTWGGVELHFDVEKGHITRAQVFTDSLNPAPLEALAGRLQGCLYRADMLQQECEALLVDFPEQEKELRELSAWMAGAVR

Sequence | kcat [1] [s⁻¹] | Km ([2]; read-out: Km (estimated), LAP1, estimated, measured by HPLC, data not shown) [µM] | ligation of lipoic acid, alkyl azide, aryl azide (LplA [3]; LAP1 fusion proteins) | labeling at the cell surface (LplA [3]; LAP1 fusions) | ligation of bromoalkanoic acid and coumarin (LplA [3]; LAP1 fusions) | yeast remaining after one round of selection (LplA [4]) | cell surface lipoylation compared with E2p (LplA [5]; CFP-TM fusions in HEK cells, average signal ratios, Figure S5B) | cell surface lipoylation of fusion proteins (LplA [5]; even at low expression levels) | kcat/Km fold worse than natural lipoate and biotin acceptor proteins ([2]; LAP2 versus natural acceptor proteins) [fold] | kcat/Km fold better than LAP1 ([2]; LAP2 versus previous rationally-designed 22-amino acid LAP1) [fold] | kcat/Km ([2]; lipoylation of synthetic LAP2 peptide, 50 nM LplA, 750 μM lipoic acid, 2 mM ATP, 5 mM magnesium acetate in DPBS, 30 °C, LAP2 5.5-352 μM, HPLC, Michaelis-Menten) [M⁻¹ s⁻¹] | recognition by LplA by position in fusion (LplA [3]; LAP2) | labeling in the cytosol / inside living cells (LplA [3]) | biotinylation by BirA (biotin ligase (BirA)) | cell surface expression (HeLa mammalian cells) | conversion to lipoylated product, C-terminal HP1 fusion (LplA [6])
DEVLVEIETDKAVLEVPGGEEE [LAP1] | 0.048 ± 0.001 | > 200 | in vitro and in cell lysate, but not on the cell surface except under conditions of high LAP1-POI over-expression | difficult to label at the cell surface | could not be ligated to LAP1 fusions in any context | could not be detected |  |  |  |  |  |  |  |  |  | 
GFEIDKVWYDLDA [LAP2] |  |  |  |  |  |  | comparable even to E2p | could easily lipoylate cell surface LAP2 fusion proteins, even at low expression levels | 8 | > 70 | 16500 | can be recognized by LplA at the N-terminus, C-terminus, and internally | allows fluorophore tagging of intracellular proteins | no biotinylation | clear cell surface expression | decreased somewhat, but was still higher than all other LAP sequences at the N-terminus
